# In BindingDB's records for doi:10.1016/S0960-894X(01)81027-1 (1993):
# Structures can show the parent of a compound that is named as a salt.
# Target: Sigma non-opioid intracellular receptor 1 (Cavia porcellus) (UniProt Q60492)
# Test: The compound was evaluated for binding affinity against sigma receptor using [3H]DTG radioligand in guinea pig membranes
# Chain of Sigma non-opioid intracellular receptor 1 (Cavia porcellus) (Q60492 whole entry, looked up): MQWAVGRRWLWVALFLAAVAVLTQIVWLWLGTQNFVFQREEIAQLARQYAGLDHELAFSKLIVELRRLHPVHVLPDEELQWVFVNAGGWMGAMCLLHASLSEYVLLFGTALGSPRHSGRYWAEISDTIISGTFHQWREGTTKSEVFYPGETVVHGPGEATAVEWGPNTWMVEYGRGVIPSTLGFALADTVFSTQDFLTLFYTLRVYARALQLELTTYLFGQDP
row,Structure (SMILES),IC50 [nM]
1,"CC(=Nc1ccccc1C)Nc1ccccc1C [N,N'-Di-o-tolyl-acetamidine; hydrochloride]",15
2,CC(=Nc1ccccc1C)NC1CC2CCC1C2 (configuration not stated) [N-Bicyclo[2.2.1]hept-2-yl-N'-o-tolyl-acetamidine],9
3,"CC(=Nc1ccc(Br)cc1C)Nc1ccc(Br)cc1C [N,N'-Bis-(4-bromo-2-methyl-phenyl)-acetamidine]",26

# Next, values leading:
row,IC50 [nM],Structure (SMILES)
1,16,"CC(=NC12CC3CC(CC(C3)C1)C2)NC12CC3CC(CC(C3)C1)C2 [N,N'-Di-adamantan-1-yl-acetamidine]"
2,6,CC(=Nc1ccccc1C)NC12CC3CC(CC(C3)C1)C2 [N-Adamantan-1-yl-N'-o-tolyl-acetamidine; hydrochloride]
3,9,CC(=Nc1ccccc1C)NC1CCCCC1 [N-Cyclohexyl-N'-o-tolyl-acetamidine; hydrochloride]
4,72,CC(=NC12CC3CC(CC(C3)C1)C2)NC1CCCCC1 [N-Adamantan-1-yl-N'-cyclohexyl-acetamidine]
